The results in this text go back to PMC9643865, “Bromo-protopine, a novel protopine derivative, alleviates tau pathology by activating chaperone-mediated autophagy for Alzheimer’s disease therapy” (Frontiers in Molecular Biosciences, 2022).

Common to all, as to type: in vivo
Data set [1] concerns 3xTg-AD mice. Kind of data set: Brain immunoblotting (sarkosyl tau fractions, chaperones, LAMP2A) and IHC. The protocol:
(§1) Female homozygous 3xTg-AD mice carrying transgenes for APP (Swedish KM670/671Nl), MAPT (tauP301L) and Psen1 (M146V) were procured from Jackson’s Laboratory (# 004807). The transgenic mice colonies were bred and maintained in the HKBU animal house at 23 ± 2 °C, 60 ± 15% relative humidity with regular access to food and water. Seven-month-old 3xTg-AD mice were randomly segregated into three treatment groups: Tg-Vehicle, 1 mg/kg, and 2.5 mg/kg PRO-Br. PRO-Br was administered orally for 8 months (n = 8). The bodyweight of mice from all the groups was recorded once every week.
(§2) Brain tissues from experimental mice were carefully isolated, washed with 1X PBS, and fixed with 4% paraformaldehyde. Post-fixation for 48 h, brain tissues were transferred to 30% sucrose solution for cryopreservation. Tissue sections (30 μm) were obtained using a cryotome, maintained at a constant -30°C. Permeabilization was performed with 0.4% triton-X-100 for 10 min. For tau immunofluorescence, PHF1 primary antibody was added, and sections were kept overnight at four°C. The following day, an appropriate secondary antibody was added at RT for 1.5 h. DAPI was used as a nuclear stain for 5 min. For DAB staining, AT8 primary antibody was added to the sections overnight. The next day, an appropriate secondary antibody was added for 1.5 h. Staining was performed by employing a Vectastain-ELITE ABC-HRP kit according to the manufacturer’s procedure. The stained sections were carefully arranged on glass slides and mounted with an appropriate mounting medium under a coverslip. Images of cortical/hippocampal regions were taken with an Eclipse 80i fluorescence microscope (Nikon Instruments Inc.). The threshold was adjusted to remove the background staining. The captured images were quantified using ImageJ (NIH) software.
Brain tissues of 3xTg-AD and P301S mice were separated, sagittally, into equal halves. One-half was lysed with tissue lysis buffer augmented with phosphatase and protease inhibitor cocktail tablets, while the other half was used for immunohistochemical analysis. Brain tissues were homogenized on ice using an Ultra Turrax tissue homogenizer. Brain tissue homogenate was subjected to sarkosyl differential centrifugation with 1% sarkosyl to separate the non-pathogenic soluble and pathogenic insoluble tau fractions. Protein lysates were evaluated for changes in levels of phospho epitopes of tau (AT8, CP13, PHF-1, MC-1, and ALZ50), and for total htau (HT7) using Western blot.
After PRO-Br treatment, cells were solubilised using cold RIPA lysis buffer (9803, Life Technologies), containing protease and phosphatase inhibitor tablets. Cells were sonicated and centrifuged at 14000 rpm for 15 min. Total protein concentration was determined by BCA protein assay, and the samples were separated on SDS-PAGE and transferred to PVDF membranes. The membranes were blocked, washed, and incubated with primary antibodies (Table 1), and incubated at 4°C, overnight. The membranes were further incubated with the required dilutions of secondary antibody for 1 h, at RT. The chemiluminescent signals were captured using x-ray film in a darkroom, with an appropriate chemiluminescent substrate kit (ThermoFisher Scientific, United States). Films were scanned, and the relative intensities of the signals were analyzed using ImageJ software.

The test system of data set [2] is P301S mice. The description is as above. The protocol: (§3) Female homozygous P301S mice bearing the transgene for MAPT (P301S), were generous gifts from Michael Goedert. P301S-tau mice (1.5-month-old, n = 8) were administered with PRO-Br daily for 2.5 months. The mice models employed in the study were maintained under 12 h light-dark cycles and were provided ad libitum access to chow and water.
as §2, with “The stained sections were carefully arranged on glass slides and mounted with an appropriate mounting medium under a coverslip.” left out, “The threshold was adjusted to remove the background staining.” left out
Brain tissues of 3xTg-AD and P301S mice were separated, sagittally, into equal halves. […] Protein lysates were evaluated for changes in levels of phospho epitopes of tau (AT8, CP13, PHF-1, MC-1, and ALZ50), and for total htau (HT7) using Western blot.
After PRO-Br treatment, cells were solubilised using cold RIPA lysis buffer (9803, Life Technologies), containing protease and phosphatase inhibitor tablets. […] Total protein concentration was determined by BCA protein assay, and the samples were separated on SDS-PAGE and transferred to PVDF membranes. […] Films were scanned, and the relative intensities of the signals were analyzed using ImageJ software.

Data set [3] relates to P301S mice. The data set is described as follows: Contextual fear conditioning test. The note with it: oral, 2.5 months. As to the method:
as §3
After treating P301S mice with PRO-Br, fear memory consolidation was evaluated by the contextual fear conditioning (CFC) test. The experimental set-up consisted of two individual sound-proof chambers, each having an electric grid on the surface. Inside each chamber, a speaker was attached to introduce a cue tone. The movement of the mice was observed and recorded by ANY maze tracking software on a laptop. The experiment was performed with a continuous white noise (40 units) and white light (40 lux). On the first day of the training session, mice were introduced into the chamber and permitted to explore for 2.5 min. Next, each mouse received three consecutive foot shock cycles; each started with a 28 s cue tone (1,500 Hz) and finished with a 2 s foot shock ([…]). On the second day, the mice were allowed to explore the grid for 3 min, after which they received a cue tone for 30 s without foot shock, and the freezing time was recorded.

Data set [4] has as its system 3xTg-AD mice. Kind of data set: Morris water maze test. To be noted: oral, 1 and 2.5 mg/kg, 8 months. As to the method:
as §1
To determine the memory functions of experimental mice, the Morris water maze test was performed according to the procedure described previously ([Iyaswamy et al., 2020]). Mice training preliminary to the probe trail was performed in two phases. The first phase, known as the visible-platform training, comprised four trials, for 1 day. In each trial, a platform was placed in the tank, 1 cm below the surface of the (clear) water. The mouse was introduced, and the time required for the mouse to find the platform was recorded. The position of the platform was changed for every trial. […] The distance travelled (cm) to reach the platform in the target quadrant was observed and recorded by a video tracking method (Ethovision, Noldus Information Technology, Version 3).

Molecules are shown by their SMILES.

As to `CN1CCc2cc3c(cc2C(=O)Cc2c(Br)cc4c(c2C1)OCO4)OCO3` [PRO-Br, bromo-protopine], the “AT8-positive cell count in the cortico-hippocampal regions” value in the data set with 3xTg-AD mice [1] (1.0 and 2.5 mg/kg, IHC) is given as “significantly reduced AT8-positive cell count”. In addition, in the data set on 3xTg-AD mice [1] (brain, immunoblotting), the “acetylation of HSP90 (K294)” value is “dose-dependently enhanced the acetylation of HSP90 (K294)”; the “expression of sarkosyl-insoluble phospho-tau variants” value is reported as “specifically reduced the expression of sarkosyl-insoluble phospho-tau variants in a dose-dependent manner”; the “heat shock proteins HSP70 and HSC70” value was “dose-dependently increased the heat shock proteins HSP70 and HSC70”; the “protein expression of LAMP2A” value is “dose-dependently increased”. Moreover, in the data set on P301S mice [2] (IHC), the “AT8- and PHF1-positive cell counts” value was “significantly reduced”. In addition, in the data set with P301S mice [2] (brain, immunoblotting), the “expression of sarkosyl-insoluble phospho-tau variants” value was “specifically reduced the expression of sarkosyl-insoluble phospho-tau variants in a dose-dependent manner” and the “protein expression of LAMP2A” value was “dose-dependently increased”. In addition, in the data set with P301S mice [3], the “freezing percentage (CFC)” value is given as “significant increase in freezing percentage”. In the data set on 3xTg-AD mice [4], the “learning and memory impairment (Morris water maze)” value is “significantly reversed the learning and memory impairment”.
